Measurements as given in patent EP1016409B1, “FREEZE DRIED COMPOSITION COMPRISING GLYCOSPHINGOLIPIDS” (KIRIN BEER KABUSHIKI KAISHA, priority 1997, dated 1998).

Experiment: Optimal formulation: re-solubility after storage
Type: physicochemical
Conditions: lyophilized, KRN7000 200 µg/ml, Polysorbate 20 0.5%
Protocol: First, Polysorbate 20 was dissolved in distilled water in a concentration of 0.5%, and sucrose and histidine or sodium deoxycholate in such concentrations listed on Table 11. Next, 20 mg of the active component (KRN7000) was weighed and stirred in 100 ml of the solvents in a heated bath to 80°C for 20 minutes in order to form a solution. After cooling with running water, the mixture was filtered through a 0.22 µm filter, and transparent colorless glass vials having a volume of 5 ml were charged with a 1 ml portion of each of a variety of solutions thus obtained and subjected to lyophilization. Lyophilization was carried out under the condition of preliminary freezing at -40°C for 2 hours and drying at -20°C for 24 hours, 10°C for 12 hours, and finally at 25°C for 5 hours to give the lyophilized product. The degree of vacuum was set at 0.1 Torr or less during drying step.
After the lyophilization step, the lyophilized composition thus obtained was stored at 25°C or 50°C. After storage at 25°C for 2 months or at 50°C for 2 weeks, the lyophilized composition was reconstituted in 1 ml of distilled water for injection, left standing for 30 minutes, and solubility was judged when the foams generated on reconstitution disappeared. The samples judged to be solution after storage at 25°C for 2 months were further stored, and judged again of their solubility after storage for 4 months.
The solubility was judged by cleaning the outside of the vial and placing it beneath the white light source in a darkroom for observation with naked eye at the position of a luminous intensity of about 5,000 lux. When the sample was clear with no precipitates, it was judged that the active component was dissolved.

**Q.** With `CCCCCCCCCCCCCCCCCCCCCCCCCC(=O)N[C@@H](CO[C@H]1O[C@H](CO)[C@H](O)[C@H](O)[C@H]1O)[C@H](O)[C@H](O)CCCCCCCCCCCCCC` [KRN7000, (2S,3S,4R)-1-(α-D-galactopyranosyloxy)-2-hexacosanoylamino-3,4-octadecanediol] as the molecule, how does the “Re-solubility after storage (by naked eye)” value (from here on “Re-solubility after storage”) (Sucrose 1.1%, Histidine, 4%, 50°C, 2 weeks) read?
**A.** The value was “+ (+ not dissolved (or deposited))”.

**Q.** What about the “Re-solubility after storage” value (Sucrose 3.1%, Histidine, 3%, 50°C, 2 weeks) of the same molecule?
**A.** The value was “- (- dissolved)”.

**Q.** What about the “Re-solubility after storage” value (Sucrose 3.2%, Histidine, 2%, 50°C, 2 weeks) of the same molecule?
**A.** Its value is “- (- dissolved)”.

**Q.** What about the “Re-solubility after storage” value (Sucrose 4.8%, Sodium deoxycholate, 0.2%, 25°C, 2 months) of the same molecule?
**A.** Its value is “+ (+ not dissolved (or deposited))”.

**Q.** And the “Re-solubility after storage” value (Sucrose 4.8%, Sodium deoxycholate, 0.5%, 25°C, 2 months)?
**A.** Its value is “- (- dissolved)”.

**Q.** And the “Re-solubility after storage” value (Sucrose 4.8%, Sodium deoxycholate, 0.5%, 25°C, 4 months)?
**A.** Its value is “- (- dissolved)”.

**Q.** And the “Re-solubility after storage” value (Sucrose 4.8%, Sodium deoxycholate, 1%, 25°C, 2 months)?
**A.** The value was “- (- dissolved)”.

**Q.** And the “Re-solubility after storage” value (Sucrose 4.8%, Sodium deoxycholate, 1%, 25°C, 4 months)?
**A.** The value was “- (- dissolved)”.

**Q.** And the “Re-solubility after storage” value (Sucrose 4.8%, Sodium deoxycholate, 2%, 25°C, 2 months)?
**A.** The value was “- (- dissolved)”.

**Q.** What about the “Re-solubility after storage” value (Sucrose 4.8%, Sodium deoxycholate, 2%, 25°C, 4 months) of the same molecule?
**A.** Its value is “- (- dissolved)”.

**Q.** And the “Re-solubility after storage” value (Sucrose 5.0%, Histidine, 2%, 50°C, 2 weeks)?
**A.** Its value is “- (- dissolved)”.

**Q.** And the “Re-solubility after storage” value (Sucrose 5.1%, Histidine, 1%, 50°C, 2 weeks)?
**A.** Its value is “- (- dissolved)”.

**Q.** And the “Re-solubility after storage” value (Sucrose 6.9%, Histidine, 1%, 50°C, 2 weeks)?
**A.** Its value is “- (- dissolved)”.

**Q.** What about the “Re-solubility after storage” value (Sucrose 7.9%, Histidine, 0.5%, 50°C, 2 weeks) of the same molecule?
**A.** The value was “+ (+ not dissolved (or deposited))”.

**Q.** What about the “Re-solubility after storage” value (Sucrose 9.6%, Histidine, 2%, 50°C, 2 weeks) of the same molecule?
**A.** The value was “- (- dissolved)”.

**Q.** And the “Re-solubility after storage” value (Sucrose 9.6%, Sodium deoxycholate, 0.2%, 25°C, 2 months)?
**A.** Its value is “+ (+ not dissolved (or deposited))”.

**Q.** What about the “Re-solubility after storage” value (Sucrose 9.6%, Sodium deoxycholate, 0.5%, 25°C, 2 months) of the same molecule?
**A.** The value was “- (- dissolved)”.

**Q.** What about the “Re-solubility after storage” value (Sucrose 9.6%, Sodium deoxycholate, 0.5%, 25°C, 4 months) of the same molecule?
**A.** Its value is “- (- dissolved)”.

**Q.** What about the “Re-solubility after storage” value (Sucrose 9.6%, Sodium deoxycholate, 1%, 25°C, 2 months) of the same molecule?
**A.** The value was “- (- dissolved)”.

**Q.** And the “Re-solubility after storage” value (Sucrose 9.6%, Sodium deoxycholate, 1%, 25°C, 4 months)?
**A.** Its value is “- (- dissolved)”.

**Q.** What about the “Re-solubility after storage” value (Sucrose 9.6%, Sodium deoxycholate, 2%, 25°C, 2 months) of the same molecule?
**A.** The value was “- (- dissolved)”.

**Q.** And the “Re-solubility after storage” value (Sucrose 9.6%, Sodium deoxycholate, 2%, 25°C, 4 months)?
**A.** Its value is “- (- dissolved)”.

**Q.** And the “Re-solubility after storage” value (Sucrose 19.2%, Sodium deoxycholate, 0.1%, 25°C, 2 months)?
**A.** The value was “+ (+ not dissolved (or deposited))”.

**Q.** What about the “Re-solubility after storage” value (Sucrose 19.2%, Sodium deoxycholate, 0.2%, 25°C, 2 months) of the same molecule?
**A.** The value was “+ (+ not dissolved (or deposited))”.

**Q.** What about the “Re-solubility after storage” value (Sucrose 19.2%, Sodium deoxycholate, 0.5%, 25°C, 2 months) of the same molecule?
**A.** The value was “+ (+ not dissolved (or deposited))”.

**Q.** And the “Re-solubility after storage” value (Sucrose 19.2%, Sodium deoxycholate, 1%, 25°C, 2 months)?
**A.** Its value is “+ (+ not dissolved (or deposited))”.

**Q.** And the “Re-solubility after storage” value (Sucrose 19.2%, Sodium deoxycholate, 2%, 25°C, 2 months)?
**A.** The value was “+ (+ not dissolved (or deposited))”.
